From US4031218A, “7-(2,3-Dihydroxypropyl-1,3-di-n-propylxanthine and a pharmaceutical composition containing same useful as a bronchial muscle relaxant” (Mallinckrodt, Inc., priority 1976, dated 1977)
Values after ≈ are worked out from the molar mass of the structure shown. “Also recorded” adds a separate entry of the source.

Key:
[1] = test system: guinea pig tracheal strip; assay: Isolated trachea preparation (in vitro tracheal strip), pilocarpine-contracted; assay type: cell-based; settings: relative to theophylline = 1.00, molar basis
Experimental: With the exception of theophylline, all compounds were administered as the free base dissolved or suspended in appropriate aqueous vehicles. […] The ethylenediamine portion of the molecule is pharmacologically inert, but renders solubility and convenience of use (Simons et al., S. Med. Journ. 68:802, 1975). For the purpose of comparison, aminophylline was considered to contain 80% free theophylline by weight (Piafsky and Ogilvie, New England J. Med. 292: 1218, 1975). Final comparisons were always based on the calculated dose of theophylline. Because of obvious differences in molecular weights, all compounds were compared on a molar basis rather than on absolute weight.
1. Isolated Trachea Preparation
The in vitro bronchodilator activity of each compound was estimated on the spirally cut guinea pig tracheal strip preparation as described by Constantine, (J. Pharm. Pharmacol. 17:384, 1965). Large Camm English Short Hair male guinea pigs (800-1200 gm.) were employed in order to obtain three spiral tracheal strips from one animal. Strips were suspended in 50 ml. tissue baths containing modified Krebs-Henseleit solution at 38° C. and aerated with 95% O2 /5% CO2. Pilocarpine HCl, 1 mg/liter, was added to the solution to maintain a sustained contraction and to promote rapid recovery of the muscle. A Grass FT 0.03 force displacement transducer was used to electronically record muscle response. Concentration-relaxation relationships were obtained for each compound by logarithmically increasing bath concentration until maximum (100%) relaxation was observed. Tissues were washed between doses and allowed 30 minutes to recover. Linear regression analysis of percent response vs. log of bath concentration allowed calculation of a slope and EC50 value (concentration producing 50% of maximum relaxation) for each compound. Each dose of each compound was tested a minimum of six times.

[2] = Oral LD50 / oral PD50 ratio in guinea pigs; settings: guinea pig, in vivo, median lethal dose / median protective dose, relative to theophylline, read-out: Oral LD50 / Oral PD50 (G. Pig), relative
Experimental: where C is the average control preconvulsive time and T is the test preconvulsive time after compound administration, both in seconds. Animals with control preconvulsive times greater than 2 minutes were not used and if test preconvulsive time was longer than 10 minutes, 100% protection was arbitrarily assumed. The dose of each compound causing 50% protection (PD50) was calculated by the method of Litchfield and Wilcoxon (J. Pharmacol. Exp. Ther. 96:99, 1949).
The PD50 of each experimental compound was determined after both intraperitoneal and oral administration. A minimum of 3 dose levels and 6 animals per dose were employed to obtain meaningful dose-response data. Protection was assessed 15-20 minutes after intraperitoneal injection and 35-40 minutes after oral gavage with a flexible plastic tube. Animals were fasted overnight prior to oral dosing. All compounds were administered in aqueous solution in concentrations commensurate to a proper volume dose. Guinea pigs were utilized between 1 and 3 times but no animal received the same compound twice in succession with a minimum of 3 days rest between doses.
2. Oral LD50 in Guinea Pigs
The acute median lethal dose of each compound after oral administration was also determined in guinea pigs. Camm English Short Hair albino guinea pigs with sexes equally represented and ranging in weight from 255 to 311 gm. were used. A minimum of six animals per dose level were employed. Oral dosing was accomplished with a flexible tube inserted into the stomach. All guinea pigs were fasted overnight. […] The other compounds were dissolved in distilled water. Following administration of the appropriate doses, acute responses and lethalities were observed and LD50 values were calculated by the method of Litchfield and Wilcoxon (J. Pharmacol. Exp. Ther. 96:99, 1949).

isolated rabbit heart = assay: Isolated rabbit heart preparation (Langendorff); assay type: cell-based; settings: mean for myocardial contractile force, heart rate, coronary flow; relative to theophylline
Experimental: 2. Isolated Rabbit Heart Preparation
In-vitro cardiodynamic activity of each compound except dyphylline was determined on the spontaneously beating isolated rabbit heart by the Langendorff method as modified by Anderson and Craver (J. Pharmacol. Exp. Ther., 93:135, 1948). After securing the extracted heart's ascending aorta to the apparatus, the coronaries were continuously perfused with aerated Chenoweth's solution (Chenoweth and Koelle, J. Lab. Clin. 31:600, 1946) maintained at a constant pressure-head and temperature of 38° C. The effects of logarithmically increasing doses of each compound were determined on contractile force, heart rate, and coronary flow. Drugs were dissolved in minimal volumes of Chenoweth's solution and injected into the downspout containing perfusate at 5-10 minute intervals.

[3] = U.S. Pat. No. 2,756,229, in comparison with theophylline; cited from earlier work
Solubility = settings: for Solubility in words: water solubility, qualitative
dogs = assay: Acute intravenous diuretic evaluation in dogs; settings: for Diuretic Activity, I.V. Dogs: estimated at HBD; for I.V. Diuretic (Dogs), relative molar activity: relative to theophylline, molar basis
Experimental: Acute Intravenous Evaluation in Dogs
Compounds were tested in two dogs each. Animals were initially hydrated with 30 ml/kg of water, orally; then anesthetized with pentobarbital sodium, 30-35 mg/kg i.v. One femoral vein was cannulated and a constant intravenous infusion of warm saline (3 ml/min.) was begun and continued throughout the experiment. The contralateral femoral vein was also cannulated for intravenous drug administration. Urine was directly collected from bilateral ureter cannulae. After a 20-minute control collection period, the first dose of the appropriate compound was injected and urine was collected at 20-minute intervals for a period of one hour. This procedure was repeated for two additional doses of the same compound. Urine volume, pH, and sodium and potassium levels were determined for each 20-minute collection period and sums were obtained for the one-hour period after each dose. Test results, reported as successive changes in each parameter, were compared accordingly.

[4] = prior art statement; listed as dyphylline; cited from earlier work
[5] = prior art statement; cited from earlier work

SMILES	Bronchodilator activity, In-Vitro (Tracheal Strip), relative molar activity [1]	selectivity ratio [2]	In-Vitro; MCF, HR, CF (Rabbit Heart), mean relative molar activity (isolated rabbit heart)	Diuretic activity in words (prior art) [3]	solubility (Solubility; water) [mg/mL]	Solubility in words (Solubility)	Diuretic Activity, I.V. Dogs (dogs)	I.V. Diuretic (Dogs), relative molar activity (dogs)	solubility (Solubility; chloroform, organic solvent or mixture) [mg/mL]	Bronchodilator activity / potency in words (prior art) [4]	Water solubility in words (prior art) [5]
CCCn1c(=O)c2c(ncn2CCCO)n(CCC)c1=O [IV, 7-(3-hydroxypropyl)-1,3-di-n-propylxanthine]	2.05	3.57	1.81	strong diuretics	30 (≈ 102 mM)	low solubilities	Mild	0.45			
CCCn1c(=O)c2c(ncn2CC(C)O)n(CCC)c1=O (stereo not shown) [III, 7-(2-hydroxypropyl) 1,3-di-n-propylxanthine]	1.86	5.43	1.40	strong diuretics	10 (≈ 34 mM)	low solubilities	Mild	0.50			
CCCn1c(=O)c2c(ncn2CC(O)CO)n(CCC)c1=O (stereo not shown) [Compound V, 7-(2,3-dihydroxypropyl)-1,3-di-n-propylxanthine]	0.99	3.75	0.93		100 (≈ 322 mM)	considerably more water soluble than theophylline	Mild	0.59	~310 (≈ 999 mM)		
Cn1c(=O)c2c(ncn2CC(O)CO)n(C)c1=O (stereo not shown) [Compound II, 7-(2,3-dihydroxypropyl) 1,3-dimethylxanthine]	0.16	2			330 (≈ 1300 mM)		Moderate	0.26		less bronchodilator potency than theophylline; also recorded: markedly decreases overall potency	high water solubility
